Reference: US20160206674A1, “FRUIT EXTRACTS AND EXTRACT FORMULATIONS OF CANARIUM ODONTOPHYLLUM AS ACTIVES AND RELATED INVENTION EMBODIMENTS” (BIOTROPICS MALAYSIA BHD, priority 2013, published 2016)

Assays:
human recombinant PDE2A1 = biological target: T1, human recombinant PDE2A1 (Homo sapiens, UniProt O00408); assay: AlphaScreen cGMP PDE assay, PDE2; assay type: biochemical; conditions: n = 3
T1 construct: FLAG (N); purchased BPS Bioscience 0021
Protocol: (§1) Phosphodiesterase inhibitory activity of the test items prepared according to the procedure in example 2 and outlined in table 2 were measured using the AlphaScreen® assay technology. Materials and methods were according to technical instructions given by Perkin Elmer (www.perkinelmer.com; “Application note “AlphaScreen cGMP Phosphodiesterase Assay Using AlphaScreen cGMP Supplement with Anti-cGMP Antibody”; Authors: Martin Boissonneault, Christian Fafard, Joe Trometer, Chantal Illy, Stéphane Parent, and Roger Bossé; PerkinElmer Life and Analytical Sciences, 710 Bridgeport Avenue, Shelton, Conn. 06484 USA).
(§2) The AlphaScreen cGMP PDE assay used PerkinElmer's AlphaScreen cGMP supplement with antibody (cat. no. 6760308M or 6760308R) which consists of a biotinylated cGMP derivative and an anti-cGMP antibody. The assay also requires the AlphaScreen Protein A detection kit (PerkinElmer cat. no. 6760617), composed of Protein A acceptor beads and Streptavidin donor beads. The human recombinant PDE5A (N-terminal GST, cat no 60050) and PDE2A1 (N-terminal FLAG tag, cat no 0021) were purchased from BPS Bioscience, San Diego, United States. […]
(§3) 1—Add 5 μL of inhibitor* * Please note that for compound screening purposes, adding […] of test compounds to 4.5 μL of cGMP substrate solution prepared in the PDE reaction Buffer is recommended. […] 2—Add 5 μL of PDE (5U per well) 3—Incubate 120 minutes at 23° C. for enzymatic cleavage of unlabeled cGMP 4—Add 5 μL of the AlphaScreen cGMP Supplement (1 nM final) 5—Add 10 μL Detection mix (anti-cGMP antibody/Streptavidin-Donor beads (20 μg/mL final)/Protein A-Acceptor beads (20 μg/mL final)) 6—Incubate the plate for 1 hour at room temperature in the dark and detect the AlphaScreen signal using the microplate analyzer PHERAstar reader.

human recombinant PDE5A = biological target: T2, human recombinant PDE5A (Homo sapiens, UniProt O76074); assay: AlphaScreen cGMP PDE assay, PDE5; assay type: biochemical; conditions: n = 3
T2 construct: GST (N); purchased BPS Bioscience 60050
Protocol: as §1, §2, §3

T1 sequence (O00408 1-920 isoform O00408-2): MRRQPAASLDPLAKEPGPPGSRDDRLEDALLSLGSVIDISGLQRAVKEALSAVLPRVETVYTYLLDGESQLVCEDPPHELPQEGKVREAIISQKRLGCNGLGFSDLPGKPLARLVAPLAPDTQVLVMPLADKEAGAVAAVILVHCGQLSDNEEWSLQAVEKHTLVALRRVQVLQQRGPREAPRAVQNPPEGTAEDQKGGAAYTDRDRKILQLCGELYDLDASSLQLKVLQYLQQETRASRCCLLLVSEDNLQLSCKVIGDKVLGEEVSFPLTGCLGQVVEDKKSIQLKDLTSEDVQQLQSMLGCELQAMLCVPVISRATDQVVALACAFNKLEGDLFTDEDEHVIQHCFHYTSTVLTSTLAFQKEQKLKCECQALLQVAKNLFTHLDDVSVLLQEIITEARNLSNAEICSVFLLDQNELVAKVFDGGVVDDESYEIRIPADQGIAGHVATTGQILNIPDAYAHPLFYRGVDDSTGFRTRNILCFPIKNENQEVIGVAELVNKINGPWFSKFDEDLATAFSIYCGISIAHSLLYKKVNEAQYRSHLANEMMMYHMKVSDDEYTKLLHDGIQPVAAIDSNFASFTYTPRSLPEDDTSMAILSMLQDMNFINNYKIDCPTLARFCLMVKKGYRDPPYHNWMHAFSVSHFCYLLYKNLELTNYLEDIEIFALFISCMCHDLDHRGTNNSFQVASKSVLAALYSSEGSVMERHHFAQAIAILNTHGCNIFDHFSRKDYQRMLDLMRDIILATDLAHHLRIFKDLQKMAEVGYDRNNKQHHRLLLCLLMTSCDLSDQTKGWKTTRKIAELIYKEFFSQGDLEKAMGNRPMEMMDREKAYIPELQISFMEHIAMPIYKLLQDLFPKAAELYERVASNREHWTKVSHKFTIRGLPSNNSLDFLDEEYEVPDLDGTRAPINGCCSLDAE

Structure (SMILES): CCCCCCC(C(C)O)n1cnc2c(N)ncnc21.Cl (stereo not drawn) [EHNA]
- % inhibition of PDE-2 (human recombinant PDE2A1; Reference at 10 μM): 98%
- % inhibition of PDE-2 (human recombinant PDE2A1; reference at 1 μM): 33%
- % inhibition of PDE-2 (human recombinant PDE2A1; reference at 5 μM): 73%

Structure (SMILES): CCCOc1ccccc1-c1nc2nn[nH]c2c(=O)[nH]1 [Zaprinast]
- inhibition at 1 µM (human recombinant PDE5A; reference at 1 μM): 57%
- inhibition at 5 µM (human recombinant PDE5A; reference at 5 μM): 81%
- inhibition at 19 µM (human recombinant PDE5A; reference at 19 μM): 88%
